In experiment [1] the target is Serine/threonine-protein kinase 25 (Homo sapiens) (UniProt O00506). Description: Inhibition of YSK (unknown origin) at 0.19 uM relative to control.
Experiment [2] addresses Ribosomal protein S6 kinase alpha-6 (Homo sapiens) (UniProt Q9UK32). Description: Inhibition of RSK4 (unknown origin) at 0.19 uM relative to control.
Experiment [3] deals with Inhibitor of nuclear factor kappa-B kinase subunit beta (Homo sapiens) (UniProt O14920). Put plainly: Inhibition of IKK-beta (unknown origin) at 0.19 uM relative to control.
Experiment [4] addresses Cyclin-dependent kinase 5/CDK5 activator 1 (Homo sapiens) (UniProt Q00535+Q15078). Put plainly: Inhibition of CDK5/p25 (unknown origin) at 0.19 uM relative to control. The format is protein-complex assay.
Experiment [5] addresses Casein kinase I isoform alpha (Homo sapiens) (UniProt P48729). Put plainly: Inhibition of CSNK1A1 (unknown origin) at 0.19 uM relative to control.
The target in experiment [6] is MAP kinase-interacting serine/threonine-protein kinase 2 (Homo sapiens) (UniProt Q9HBH9). Description: Inhibition of MNK2 (unknown origin) at 0.19 uM relative to control.
The target of experiment [7] is Tyrosine-protein kinase FRK (Homo sapiens) (UniProt P42685). Description: Inhibition of FRK (unknown origin) at 0.19 uM relative to control.
Experiment [8] deals with Serine/threonine-protein kinase 4 (Homo sapiens) (UniProt Q13043). Description: Inhibition of MST1 (unknown origin) at 0.19 uM relative to control.
For experiment [9], the target named is MAP/microtubule affinity-regulating kinase 3 (Homo sapiens) (UniProt P27448). Description: Inhibition of c-TAK1 (unknown origin) at 0.19 uM relative to control.
Experiment [10] deals with Tyrosine-protein kinase JAK2 (Homo sapiens) (UniProt O60674). Description: Inhibition of JAK2 (unknown origin) at 0.19 uM relative to control.
The target in experiment [11] is Proto-oncogene tyrosine-protein kinase Src (Homo sapiens) (UniProt P12931). Put plainly: Inhibition of SRC (unknown origin) at 0.19 uM relative to control.
The target of experiment [12] is Ribosomal protein S6 kinase alpha-1 (Homo sapiens) (UniProt Q15418). Put plainly: Inhibition of RSK1 (unknown origin) at 0.19 uM relative to control.
Experiment [13] concerns the target BDNF/NT-3 growth factors receptor (Homo sapiens) (UniProt Q16620). Put plainly: Inhibition of NTRK2 (unknown origin) at 0.19 uM relative to control.
Experiment [14] concerns the target Ribosomal protein S6 kinase (Homo sapiens) (UniProt P51812+Q9UBS0+O75676+Q15349+O75582+P23443+Q9UK32+Q15418). Put plainly: Inhibition of p70S6K (unknown origin) at 0.19 uM relative to control. It counts as protein assay.
The target of experiment [15] is Casein kinase I isoform delta (Homo sapiens) (UniProt P48730). Description: Inhibition of CK1-delta (unknown origin) at 0.19 uM relative to control.
Experiment [16] concerns the target Tyrosine-protein kinase ABL2 (Homo sapiens) (UniProt P42684). Put plainly: Inhibition of Arg (unknown origin) at 0.19 uM relative to control.
The target in experiment [17] is Ephrin type-A receptor 4 (Homo sapiens) (UniProt P54764). Put plainly: Inhibition of EPHA4 (unknown origin) at 0.19 uM relative to control.
The target of experiment [18] is Dual specificity protein kinase CLK2 (Homo sapiens) (UniProt P49760). Description: Inhibition of CLK2 (unknown origin) at 0.19 uM relative to control.
The target in experiment [19] is Serine/threonine-protein kinase pim-2 (Homo sapiens) (UniProt Q9P1W9). Put plainly: Inhibition of PIM2 (unknown origin) at 0.19 uM relative to control.
For experiment [20], the target named is Serine/threonine-protein kinase Sgk1 (Homo sapiens) (UniProt O00141). Description: Inhibition of SGK1 (unknown origin) at 0.19 uM relative to control.
The target of experiment [21] is Tyrosine-protein kinase ITK/TSK (Homo sapiens) (UniProt Q08881). Put plainly: Inhibition of ITK (unknown origin) at 0.19 uM relative to control.
Experiment [22] concerns the target Tyrosine-protein kinase Fyn (Homo sapiens) (UniProt P06241). Put plainly: Inhibition of FYN (unknown origin) at 0.19 uM relative to control.
Experiment [23] has as its target T1, Mitogen-activated protein kinase 12 (Homo sapiens) (UniProt P53778).
T1 sequence (whole entry): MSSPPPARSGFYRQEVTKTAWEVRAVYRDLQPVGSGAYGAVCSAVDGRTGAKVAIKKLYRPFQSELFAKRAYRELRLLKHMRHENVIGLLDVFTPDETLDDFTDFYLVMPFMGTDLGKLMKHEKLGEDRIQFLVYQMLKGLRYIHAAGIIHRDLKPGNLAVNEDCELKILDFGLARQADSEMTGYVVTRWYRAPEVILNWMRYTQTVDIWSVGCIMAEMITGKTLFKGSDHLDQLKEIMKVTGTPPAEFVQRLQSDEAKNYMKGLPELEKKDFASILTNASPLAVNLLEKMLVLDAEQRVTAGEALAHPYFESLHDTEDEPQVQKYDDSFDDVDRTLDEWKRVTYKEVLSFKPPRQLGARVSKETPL
Description: Inhibition of p38-gamma (unknown origin) at 0.164 uM relative to control.

For experiment [24], the target named is Ribosomal protein S6 kinase alpha-6 (Homo sapiens) (UniProt Q9UK32). Put plainly: Inhibition of RSK4 (unknown origin) at 0.164 uM relative to control.
For experiment [25], the target named is Cytoplasmic tyrosine-protein kinase BMX (Homo sapiens) (UniProt P51813). Description: Inhibition of BMX (unknown origin) at 0.164 uM relative to control.
Experiment [26] deals with Interleukin-1 receptor-associated kinase 4 (Homo sapiens) (UniProt Q9NWZ3). Description: Inhibition of IRAK4 (unknown origin) at 0.164 uM relative to control.
In experiment [27] the target is Rho-associated protein kinase 2 (Homo sapiens) (UniProt O75116). Put plainly: Inhibition of ROCK2 (unknown origin) at 0.164 uM relative to control.
The target of experiment [28] is Calcium/calmodulin-dependent protein kinase type 1 (Homo sapiens) (UniProt Q14012). Description: Inhibition of CaMK1a (unknown origin) at 0.164 uM relative to control.
The subject of experiment [29] is Proto-oncogene tyrosine-protein kinase receptor Ret (Homo sapiens), P07949 [V804L]. Description: Inhibition of Ret V804L mutant (unknown origin) at 0.164 uM relative to control.
The target of experiment [30] is AMPK alpha2/beta1/gamma1 (Homo sapiens) (UniProt P54646+P54619+Q9Y478). Description: Inhibition of AMPK-alpha2/beta1/gamma1 (unknown origin) at 0.164 uM relative to control. The format is protein-complex assay.
In experiment [31] the test system is Tyrosine-protein kinase ABL1 (Homo sapiens), P00519 [T315I]. Description: Inhibition of Abl T315I mutant (unknown origin) at 0.164 uM relative to control.
Experiment [32] addresses Mitogen-activated protein kinase 11 (Homo sapiens) (UniProt Q15759). Put plainly: Inhibition of p38-beta2 (unknown origin) at 0.164 uM relative to control.
The target in experiment [33] is Epidermal growth factor receptor (Homo sapiens) (UniProt P00533). Put plainly: Inhibition of EGFR (unknown origin) at 0.45 uM relative to control.

Ribosomal protein S6 kinase alpha-6 (Homo sapiens), sequence (Q9UK32 whole entry): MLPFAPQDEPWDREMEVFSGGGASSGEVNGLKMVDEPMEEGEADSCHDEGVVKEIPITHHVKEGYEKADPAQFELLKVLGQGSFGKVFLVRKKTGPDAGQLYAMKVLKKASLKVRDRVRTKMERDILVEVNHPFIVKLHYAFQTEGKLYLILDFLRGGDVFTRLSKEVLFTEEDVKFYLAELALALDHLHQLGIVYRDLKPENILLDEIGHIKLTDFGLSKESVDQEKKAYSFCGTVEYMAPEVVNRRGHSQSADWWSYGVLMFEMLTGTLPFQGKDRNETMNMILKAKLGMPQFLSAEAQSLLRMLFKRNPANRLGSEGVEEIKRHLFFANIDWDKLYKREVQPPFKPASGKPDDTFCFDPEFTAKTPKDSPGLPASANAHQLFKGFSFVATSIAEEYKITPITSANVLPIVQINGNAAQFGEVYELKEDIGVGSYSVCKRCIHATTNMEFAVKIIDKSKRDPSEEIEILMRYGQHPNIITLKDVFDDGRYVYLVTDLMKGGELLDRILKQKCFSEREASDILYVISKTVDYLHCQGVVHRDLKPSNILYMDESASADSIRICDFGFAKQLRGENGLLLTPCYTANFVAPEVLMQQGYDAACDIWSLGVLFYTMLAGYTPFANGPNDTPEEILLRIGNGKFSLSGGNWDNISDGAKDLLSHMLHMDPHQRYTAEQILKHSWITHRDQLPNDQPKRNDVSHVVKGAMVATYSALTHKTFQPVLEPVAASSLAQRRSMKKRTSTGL
MAP kinase-interacting serine/threonine-protein kinase 2 (Homo sapiens), sequence (Q9HBH9 whole entry, looked up): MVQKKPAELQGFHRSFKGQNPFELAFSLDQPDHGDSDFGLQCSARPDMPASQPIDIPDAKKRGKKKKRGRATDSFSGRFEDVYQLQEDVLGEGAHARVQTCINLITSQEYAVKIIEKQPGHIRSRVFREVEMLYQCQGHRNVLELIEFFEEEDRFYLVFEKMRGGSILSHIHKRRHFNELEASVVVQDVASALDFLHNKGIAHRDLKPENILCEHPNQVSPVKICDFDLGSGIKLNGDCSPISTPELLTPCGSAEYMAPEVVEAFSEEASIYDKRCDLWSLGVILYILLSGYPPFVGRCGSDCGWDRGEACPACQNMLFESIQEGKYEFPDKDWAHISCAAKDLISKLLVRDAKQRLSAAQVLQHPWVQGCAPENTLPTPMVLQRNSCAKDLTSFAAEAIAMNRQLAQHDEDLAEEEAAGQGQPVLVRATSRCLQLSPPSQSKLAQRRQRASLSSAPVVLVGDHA
Rho-associated protein kinase 2 (Homo sapiens), sequence (O75116 whole entry, looked up): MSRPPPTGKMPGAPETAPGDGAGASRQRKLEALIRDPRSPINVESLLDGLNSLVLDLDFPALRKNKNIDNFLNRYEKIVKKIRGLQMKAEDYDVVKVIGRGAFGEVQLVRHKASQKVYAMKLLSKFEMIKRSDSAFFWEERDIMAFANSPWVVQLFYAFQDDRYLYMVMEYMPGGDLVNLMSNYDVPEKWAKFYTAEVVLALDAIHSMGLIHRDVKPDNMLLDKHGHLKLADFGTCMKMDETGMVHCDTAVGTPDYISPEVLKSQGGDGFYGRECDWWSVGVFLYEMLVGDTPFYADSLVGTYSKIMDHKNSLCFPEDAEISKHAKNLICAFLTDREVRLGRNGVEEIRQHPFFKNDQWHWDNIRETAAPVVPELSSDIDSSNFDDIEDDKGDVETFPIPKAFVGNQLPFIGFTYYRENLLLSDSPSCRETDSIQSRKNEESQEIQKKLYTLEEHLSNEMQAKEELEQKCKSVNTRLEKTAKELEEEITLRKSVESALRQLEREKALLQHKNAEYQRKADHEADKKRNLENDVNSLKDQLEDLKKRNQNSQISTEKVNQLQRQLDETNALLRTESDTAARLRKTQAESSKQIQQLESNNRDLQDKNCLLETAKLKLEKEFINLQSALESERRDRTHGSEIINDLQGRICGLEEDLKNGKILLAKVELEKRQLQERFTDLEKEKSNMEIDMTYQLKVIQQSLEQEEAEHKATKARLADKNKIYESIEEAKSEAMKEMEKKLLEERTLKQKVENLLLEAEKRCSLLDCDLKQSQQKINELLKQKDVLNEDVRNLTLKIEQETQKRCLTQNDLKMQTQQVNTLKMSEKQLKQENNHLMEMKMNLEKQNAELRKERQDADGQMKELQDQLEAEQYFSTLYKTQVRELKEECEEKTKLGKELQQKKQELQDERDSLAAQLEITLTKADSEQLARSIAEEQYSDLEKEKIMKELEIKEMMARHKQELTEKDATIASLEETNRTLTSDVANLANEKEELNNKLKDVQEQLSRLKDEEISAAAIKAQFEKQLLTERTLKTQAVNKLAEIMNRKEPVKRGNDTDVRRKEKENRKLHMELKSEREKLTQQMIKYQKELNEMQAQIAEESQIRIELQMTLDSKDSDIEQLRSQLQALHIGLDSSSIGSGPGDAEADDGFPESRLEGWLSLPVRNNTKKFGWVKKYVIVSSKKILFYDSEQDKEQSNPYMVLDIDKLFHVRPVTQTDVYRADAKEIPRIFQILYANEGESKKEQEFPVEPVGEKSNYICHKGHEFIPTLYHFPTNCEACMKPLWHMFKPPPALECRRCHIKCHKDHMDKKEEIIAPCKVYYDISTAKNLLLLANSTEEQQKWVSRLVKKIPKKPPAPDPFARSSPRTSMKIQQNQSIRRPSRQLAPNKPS
Serine/threonine-protein kinase pim-2 (Homo sapiens), sequence (Q9P1W9 whole entry, looked up): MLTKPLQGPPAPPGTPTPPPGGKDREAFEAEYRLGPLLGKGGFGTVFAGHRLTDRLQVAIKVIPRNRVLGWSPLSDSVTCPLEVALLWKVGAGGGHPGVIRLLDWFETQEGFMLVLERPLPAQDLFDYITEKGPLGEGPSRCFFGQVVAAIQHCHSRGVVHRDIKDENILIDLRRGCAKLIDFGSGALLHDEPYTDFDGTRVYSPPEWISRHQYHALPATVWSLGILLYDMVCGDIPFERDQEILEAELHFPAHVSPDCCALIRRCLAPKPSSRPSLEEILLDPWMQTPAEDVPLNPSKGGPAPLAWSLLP
BDNF/NT-3 growth factors receptor (Homo sapiens), sequence (Q16620 32-822 limits assumed): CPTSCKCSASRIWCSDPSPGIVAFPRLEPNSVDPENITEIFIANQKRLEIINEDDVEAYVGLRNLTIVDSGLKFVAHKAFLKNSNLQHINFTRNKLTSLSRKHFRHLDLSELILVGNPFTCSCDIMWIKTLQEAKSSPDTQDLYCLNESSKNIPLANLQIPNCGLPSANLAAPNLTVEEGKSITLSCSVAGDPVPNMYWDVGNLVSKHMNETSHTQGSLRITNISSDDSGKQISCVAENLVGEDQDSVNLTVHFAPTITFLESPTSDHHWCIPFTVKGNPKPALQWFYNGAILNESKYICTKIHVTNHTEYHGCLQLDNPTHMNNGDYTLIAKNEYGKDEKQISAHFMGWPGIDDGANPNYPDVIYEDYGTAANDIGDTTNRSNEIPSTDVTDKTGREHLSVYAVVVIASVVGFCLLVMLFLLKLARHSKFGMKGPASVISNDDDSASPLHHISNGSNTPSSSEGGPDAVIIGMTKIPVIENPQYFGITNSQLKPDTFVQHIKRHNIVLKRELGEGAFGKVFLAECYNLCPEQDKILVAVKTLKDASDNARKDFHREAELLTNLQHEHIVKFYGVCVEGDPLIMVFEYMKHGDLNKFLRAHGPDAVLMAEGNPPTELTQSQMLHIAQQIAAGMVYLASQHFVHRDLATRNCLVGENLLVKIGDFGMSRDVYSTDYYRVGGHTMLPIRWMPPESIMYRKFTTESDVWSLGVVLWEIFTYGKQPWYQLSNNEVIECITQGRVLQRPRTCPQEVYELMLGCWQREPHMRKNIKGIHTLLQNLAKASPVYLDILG
Cyclin-dependent kinase 5/CDK5 activator 1 (Homo sapiens), sequence (Q00535 whole entry, canonical isoform): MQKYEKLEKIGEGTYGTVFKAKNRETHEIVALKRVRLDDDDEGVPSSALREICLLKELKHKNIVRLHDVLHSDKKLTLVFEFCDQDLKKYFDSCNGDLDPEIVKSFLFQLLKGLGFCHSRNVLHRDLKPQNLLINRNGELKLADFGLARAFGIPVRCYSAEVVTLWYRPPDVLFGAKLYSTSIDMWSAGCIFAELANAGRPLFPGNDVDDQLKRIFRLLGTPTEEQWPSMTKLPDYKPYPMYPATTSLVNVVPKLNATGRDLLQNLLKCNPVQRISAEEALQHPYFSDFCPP
Cyclin-dependent kinase 5/CDK5 activator 1 (Homo sapiens), sequence (Q15078 99-307 partner limits assumed): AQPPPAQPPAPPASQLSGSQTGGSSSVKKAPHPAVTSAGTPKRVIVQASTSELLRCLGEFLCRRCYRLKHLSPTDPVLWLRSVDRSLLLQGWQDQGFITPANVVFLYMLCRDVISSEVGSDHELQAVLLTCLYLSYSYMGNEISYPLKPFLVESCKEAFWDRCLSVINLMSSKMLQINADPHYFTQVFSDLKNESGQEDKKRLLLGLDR
Ribosomal protein S6 kinase alpha-1 (Homo sapiens), sequence (Q15418 whole entry): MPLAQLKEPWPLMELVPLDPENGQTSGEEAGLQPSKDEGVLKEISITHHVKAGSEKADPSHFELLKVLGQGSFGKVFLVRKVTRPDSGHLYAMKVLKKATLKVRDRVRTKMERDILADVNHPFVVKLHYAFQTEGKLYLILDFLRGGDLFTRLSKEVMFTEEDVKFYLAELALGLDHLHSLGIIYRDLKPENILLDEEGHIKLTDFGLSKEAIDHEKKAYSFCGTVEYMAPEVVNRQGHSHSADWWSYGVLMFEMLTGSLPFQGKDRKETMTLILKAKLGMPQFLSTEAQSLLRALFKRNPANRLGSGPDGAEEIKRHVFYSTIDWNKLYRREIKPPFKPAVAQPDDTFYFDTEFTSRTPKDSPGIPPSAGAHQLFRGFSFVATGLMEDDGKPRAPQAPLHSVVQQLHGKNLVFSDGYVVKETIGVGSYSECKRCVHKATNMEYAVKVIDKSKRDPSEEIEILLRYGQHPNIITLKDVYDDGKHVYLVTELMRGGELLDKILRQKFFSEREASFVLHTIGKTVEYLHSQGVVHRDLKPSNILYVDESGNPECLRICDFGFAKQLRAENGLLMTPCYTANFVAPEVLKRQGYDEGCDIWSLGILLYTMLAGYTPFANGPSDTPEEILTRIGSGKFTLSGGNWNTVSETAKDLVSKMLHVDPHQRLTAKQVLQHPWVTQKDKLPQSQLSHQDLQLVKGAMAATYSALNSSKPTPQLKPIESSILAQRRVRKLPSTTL

For `Cc1[nH]nc(C2CC2)c1-c1ccc2c(-c3ccc(N4CCN(C)CC4)nc3)n[nH]c2c1`, the inhibition is 20% in [1]; -2% in [2]; 8% in experiment [3]; -4% in experiment [4]; 0.7% in experiment [5]; 0% in experiment [6]. In addition, the inhibition in experiment [7] is 3.3%; in [8], 28%; in [9], 0.3%; in experiment [10], 6.3%; in experiment [11], 15.7%; in experiment [12] it was 4.7%. For the same molecule, the inhibition in experiment [13] is 18.3%; in experiment [14], 5.7%; in experiment [15] it was 0%; in experiment [16], 57%; in experiment [17] it was 2%; in [18] it was -0.3%. The inhibition in experiment [19] came out at 2%; in experiment [20], 6.3%; in experiment [21], 24.7%; in [22], 12.3%.

Take `COC(=O)Nc1cc(-c2c(C3CC3)n[nH]c2C)cc2[nH]ncc12`: the inhibition in [23] is 0.3%; in experiment [24], 13.3%; in experiment [25], 17.7%; in experiment [26], -7.7%; in [27] it was -3%; in experiment [28], 3.3%. Moreover, the inhibition in experiment [29] was 0.7%; in experiment [30], 0.3%; in experiment [31], -3.7%; in [32] it was 1.7%.

As for `Cc1n[nH]c(C)c1-c1ccc2c(NC(=O)c3ccc(N4CCN(C)CC4)cc3)n[nH]c2c1`, in experiment [33], the inhibition is -6%.
